From US11292807B2 (OCEANS LTD., priority 2015, dated 2022)
Where two headings read alike, the source gives them in different places.

Tests used:
cancer cell lines = test: Anti-cancer screening of extracts, fractions and compounds (CIMA assay, bioassay-guided fractionation); format: cell-based, human; conditions: in vitro
Method: Lead crude extracts were fractionated into five fractions by C-18 SPE column separation using 15 ml each of 5% methanol (fraction 1), 25% methanol (fraction 2), 50% methanol (fraction 3), 100% methanol (fraction 4) and […] (fraction 5). Extracts were fractionated and the resulting fractions were evaluated using CIMA assay. Bio-assay guided fractionation provided detailed information regarding the compound(s) responsible for specific bioactivity.

MDA-MB [1] = test: cells; conditions: Homo sapiens, read-out: Average cell viability, MDA-MB
[2] = tested on: U373 (glioblastoma-astrocytoma); test: CIMA assay, cell viability, U373; conditions: for Fold change in viability AVG: U373
[3] = tested on: CCD1079SK (fibroblast, noncancerous but proliferating); test: CIMA assay, cell viability, CCD1079SK; conditions: CCD
Method: (§1) Stock solutions of the extracts were prepared in dimethylsulfoxide (DMSO) at 10 mg/mL and stored in 200 μl aliquots at −20° C. until analysis. This preparation ensured that the DMSO delivered to cells in culture never exceeded 1%.
(§2) Prepared extracts were assessed following chronic exposure conditions in which cells were seeded at 2×10^3 cells/well (96 well-plate) and incubated with test compounds for 72 h. Each compound was evaluated over a range of concentrations (0, 10, 25, 50 or 100 μg/ml). Cell proliferation was initially assessed using a standard colorimetric indicator of metabolic activity (CIMA) assay. In this assay, tetrazole reduction was evaluated as a measure of metabolic function that evaluates mitochondrial activity to determine the extent of cell proliferation within a culture. This assay is based on the reduction of yellow tetrazolium salt to purple formazan by mitochondrial reductases enzyme in viable cells, resulting in a color changed that confers a change in absorbance.

A549 (lung carcinoma) = test: CIMA assay (colorimetric indicator of metabolic activity), cell viability, A549; conditions: for Fold change in viability AVG: A549
Method: as §1, §2

MDA-MB [4] = conditions: MDA-MB
in vitro = conditions: human, Average cell viability
Method: as §1, §2

PC3 = test: CIMA assay, cell viability, PC3; conditions: for Fold change in viability AVG: PC3
[5] = tested on: SKOV3 (ovarian adenocarcinoma); test: CIMA assay, cell viability, SKOV3; conditions: for Fold change in viability AVG: SKOV
[6] = tested on: THP-1 (acute monocytic leukemia); test: CIMA assay, cell viability, THP-1; conditions: for Fold change in viability AVG: THP-1

Question: With CO[C@H]1CC(C)(C)C(/C=C/C(C)=C/C=C/C(C)=C/C=C/C=C(C)/C=C/C=C(C)/C=C/[C@H]2C(C)=C[C@@H](O)CC2(C)C)=C(C)C1=O [C] as the compound, how does the “anti-cancer activity (in words)” value (cancer cell lines) read?
Answer: anti-cancer activity

Question: Which viability at 1 µg/mL (MDA-MB [1]; 1 ug/mL) does the source give for CC/C=C\C/C=C\C/C=C\CCCCCCCC(=O)O [Compound 19, α-linolenic acid] here?
Answer: 108%

Question: What about the viability at 10 µg/mL (MDA-MB [1]; 10 ug/mL) of the same compound?
Answer: 108%

Question: What about the viability at 50 µg/mL (MDA-MB [1]; 50 ug/mL) of the same compound?
Answer: 81%

Question: What about the viability at 100 µg/mL (MDA-MB [1]; 100 ug/mL) of the same compound?
Answer: 24%

Question: And the viability at 1 µg/mL ([2]; Homo sapiens, U373 MG, read-out: Average cell viability, U373, 1 ug/mL)?
Answer: 116%

Question: What about the viability at 10 µg/mL ([2]; Homo sapiens, U373 MG, read-out: Average cell viability, U373, 10 ug/mL) of the same compound?
Answer: 108%

Question: What about the viability at 50 µg/mL ([2]; Homo sapiens, U373 MG, read-out: Average cell viability, U373, 50 ug/mL) of the same compound?
Answer: 57%

Question: What about the viability at 100 µg/mL ([2]; Homo sapiens, U373 MG, read-out: Average cell viability, U373, 100 ug/mL) of the same compound?
Answer: 10%

Question: What about the “U373 AVG” value ([2]; U373, sample at 1 ug/mL) of the same compound?
Answer: 1.18

Question: What about the “U373 AVG” value ([2]; U373, sample at 10 ug/mL) of the same compound?
Answer: 1.10

Question: What about the “U373 AVG” value ([2]; U373, sample at 50 ug/mL) of the same compound?
Answer: 0.58

Question: What about the “U373 AVG” value ([2]; U373, sample at 100 ug/mL) of the same compound?
Answer: 0.10

Question: And the “Fold change in viability AVG” value ([2]; 1 ug/mL)?
Answer: 1.18

Question: What about the “Fold change in viability AVG” value ([2]; 10 ug/mL) of the same compound?
Answer: 1.10

Question: What about the “Fold change in viability AVG” value ([2]; 50 ug/mL) of the same compound?
Answer: 0.58

Question: What about the “Fold change in viability AVG” value ([2]; 100 ug/mL) of the same compound?
Answer: 0.10

Question: What about the “Fold change in viability AVG” value ([3]; 1 ug/mL) of the same compound?
Answer: 1.20

Question: And the “Fold change in viability AVG” value ([3]; 10 ug/mL)?
Answer: 1.16

Question: And the “Fold change in viability AVG” value ([3]; 50 ug/mL)?
Answer: 0.85

Question: And the “Fold change in viability AVG” value ([3]; 100 ug/mL)?
Answer: 0.23

Question: What about the “A549 AVG” value (A549 (lung carcinoma); A549, sample at 1 ug/mL) of the same compound?
Answer: 1.16

Question: What about the “A549 AVG” value (A549 (lung carcinoma); A549, sample at 10 ug/mL) of the same compound?
Answer: 1.16

Question: What about the “A549 AVG” value (A549 (lung carcinoma); A549, sample at 50 ug/mL) of the same compound?
Answer: 1.02

Question: What about the “A549 AVG” value (A549 (lung carcinoma); A549, sample at 100 ug/mL) of the same compound?
Answer: 0.67

Question: And the “Fold change in viability AVG” value (A549 (lung carcinoma); 1 ug/mL)?
Answer: 1.16

Question: What about the “Fold change in viability AVG” value (A549 (lung carcinoma); 10 ug/mL) of the same compound?
Answer: 1.16

Question: And the “Fold change in viability AVG” value (A549 (lung carcinoma); 50 ug/mL)?
Answer: 1.02

Question: What about the “Fold change in viability AVG” value (A549 (lung carcinoma); 100 ug/mL) of the same compound?
Answer: 0.67

Question: And the viability at 1 µg/mL (A549 (lung carcinoma); Homo sapiens, A549, read-out: Average cell viability, A549, 1 ug/mL)?
Answer: 99%

Question: And the viability at 10 µg/mL (A549 (lung carcinoma); Homo sapiens, A549, read-out: Average cell viability, A549, 10 ug/mL)?
Answer: 100%

Question: What about the viability at 50 µg/mL (A549 (lung carcinoma); Homo sapiens, A549, read-out: Average cell viability, A549, 50 ug/mL) of the same compound?
Answer: 88%

Question: And the viability at 100 µg/mL (A549 (lung carcinoma); Homo sapiens, A549, read-out: Average cell viability, A549, 100 ug/mL)?
Answer: 57%

Question: What about the “MDA-MB AVG” value (MDA-MB [4]; sample at 1 ug/mL) of the same compound?
Answer: 1.17

Question: And the “MDA-MB AVG” value (MDA-MB [4]; sample at 10 ug/mL)?
Answer: 1.18

Question: What about the “MDA-MB AVG” value (MDA-MB [4]; sample at 50 ug/mL) of the same compound?
Answer: 0.88

Question: And the “MDA-MB AVG” value (MDA-MB [4]; sample at 100 ug/mL)?
Answer: 0.26

Question: What about the “Fold change in viability AVG” value (MDA-MB [4]; 1 ug/mL) of the same compound?
Answer: 1.17

Question: And the “Fold change in viability AVG” value (MDA-MB [4]; 10 ug/mL)?
Answer: 1.18

Question: And the “Fold change in viability AVG” value (MDA-MB [4]; 50 ug/mL)?
Answer: 0.88

Question: What about the “Fold change in viability AVG” value (MDA-MB [4]; 100 ug/mL) of the same compound?
Answer: 0.26

Question: And the viability at 72 h, 1 ug/mL (in vitro)?
Answer: 109%

Question: What about the viability at 72 h, 10 ug/mL (in vitro) of the same compound?
Answer: 105%

Question: What about the viability at 72 h, 50 ug/mL (in vitro) of the same compound?
Answer: 77%

Question: And the viability at 72 h, 100 ug/mL (in vitro)?
Answer: 21%

Question: What about the viability at 1 µg/mL (PC3; Homo sapiens, PC-3, read-out: Average cell viability, PC3, 1 ug/mL) of the same compound?
Answer: 105%

Question: And the viability at 10 µg/mL (PC3; Homo sapiens, PC-3, read-out: Average cell viability, PC3, 10 ug/mL)?
Answer: 103%

Question: What about the viability at 50 µg/mL (PC3; Homo sapiens, PC-3, read-out: Average cell viability, PC3, 50 ug/mL) of the same compound?
Answer: 88%

Question: And the viability at 100 µg/mL (PC3; Homo sapiens, PC-3, read-out: Average cell viability, PC3, 100 ug/mL)?
Answer: 11%

Question: What about the “PC3 AVG” value (PC3; PC3, sample at 1 ug/mL) of the same compound?
Answer: 1.09

Question: And the “PC3 AVG” value (PC3; PC3, sample at 10 ug/mL)?
Answer: 1.07

Question: And the “PC3 AVG” value (PC3; PC3, sample at 50 ug/mL)?
Answer: 0.91

Question: And the “PC3 AVG” value (PC3; PC3, sample at 100 ug/mL)?
Answer: 0.12

Question: And the “Fold change in viability AVG” value (PC3; 1 ug/mL)?
Answer: 1.09

Question: What about the “Fold change in viability AVG” value (PC3; 10 ug/mL) of the same compound?
Answer: 1.07

Question: What about the “Fold change in viability AVG” value (PC3; 50 ug/mL) of the same compound?
Answer: 0.91

Question: And the “Fold change in viability AVG” value (PC3; 100 ug/mL)?
Answer: 0.12

Question: What about the viability at 1 µg/mL ([5]; Homo sapiens, SK-OV-3, read-out: Average cell viability, SKOV, 1 ug/mL) of the same compound?
Answer: 117%

Question: And the viability at 10 µg/mL ([5]; Homo sapiens, SK-OV-3, read-out: Average cell viability, SKOV, 10 ug/mL)?
Answer: 111%

Question: And the viability at 50 µg/mL ([5]; Homo sapiens, SK-OV-3, read-out: Average cell viability, SKOV, 50 ug/mL)?
Answer: 101%

Question: And the viability at 100 µg/mL ([5]; Homo sapiens, SK-OV-3, read-out: Average cell viability, SKOV, 100 ug/mL)?
Answer: 83%

Question: What about the “Fold change in viability AVG” value ([5]; 1 ug/mL) of the same compound?
Answer: 1.26

Question: What about the “Fold change in viability AVG” value ([5]; 10 ug/mL) of the same compound?
Answer: 1.20

Question: And the “Fold change in viability AVG” value ([5]; 50 ug/mL)?
Answer: 1.09

Question: And the “Fold change in viability AVG” value ([5]; 100 ug/mL)?
Answer: 0.90

Question: And the viability at 1 µg/mL ([6]; Homo sapiens, THP-1, read-out: Average cell viability, THP-1, 1 ug/mL)?
Answer: 102%

Question: And the viability at 10 µg/mL ([6]; Homo sapiens, THP-1, read-out: Average cell viability, THP-1, 10 ug/mL)?
Answer: 99%

Question: And the viability at 50 µg/mL ([6]; Homo sapiens, THP-1, read-out: Average cell viability, THP-1, 50 ug/mL)?
Answer: 72%

Question: And the viability at 100 µg/mL ([6]; Homo sapiens, THP-1, read-out: Average cell viability, THP-1, 100 ug/mL)?
Answer: 31%

Question: And the “THP-1 AVG” value ([6]; THP-1, sample at 1 ug/mL)?
Answer: 1.16

Question: What about the “THP-1 AVG” value ([6]; THP-1, sample at 10 ug/mL) of the same compound?
Answer: 1.12

Question: What about the “THP-1 AVG” value ([6]; THP-1, sample at 50 ug/mL) of the same compound?
Answer: 0.82

Question: What about the “THP-1 AVG” value ([6]; THP-1, sample at 100 ug/mL) of the same compound?
Answer: 0.35

Question: What about the “Fold change in viability AVG” value ([6]; 1 ug/mL) of the same compound?
Answer: 1.16

Question: And the “Fold change in viability AVG” value ([6]; 10 ug/mL)?
Answer: 1.12

Question: And the “Fold change in viability AVG” value ([6]; 50 ug/mL)?
Answer: 0.82

Question: And the “Fold change in viability AVG” value ([6]; 100 ug/mL)?
Answer: 0.35
